Consider five compounds from patent EP4678638A1, “NEW E3 UBIQUITIN LIGASE LIGAND, PROTEIN DEGRADATION AGENT AND USE THEREOF” (priority 2023, dated 2024).

One assay has as its target T1, RSK1 (Homo sapiens, UniProt Q15418).
T1 construct: evaluate the effects of the compounds of the present disclosure on the expression of target proteins in cells; endogenous in cells; host or cells: hPBMC
Nature of the assay: Western blot degradation of RSK1 (hPBMC). It counts as cell-based. Particulars: Table D8. The method, boiled down:
(§1)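 Quantification by ImageJ densitometry of Western blot bands: DC50 is the fitted concentration halving band intensity relative to DMSO. Percent remaining uses internal-control normalization, and degradation rate is its complement.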

For assay [1], the target named is T2, human Cereblon WT GST-tagged protein (Homo sapiens, UniProt Q96SW2).
T2 construct: purchased CISBIO 64BDCRBNPEH
T2 sequence (Q96SW2 whole entry): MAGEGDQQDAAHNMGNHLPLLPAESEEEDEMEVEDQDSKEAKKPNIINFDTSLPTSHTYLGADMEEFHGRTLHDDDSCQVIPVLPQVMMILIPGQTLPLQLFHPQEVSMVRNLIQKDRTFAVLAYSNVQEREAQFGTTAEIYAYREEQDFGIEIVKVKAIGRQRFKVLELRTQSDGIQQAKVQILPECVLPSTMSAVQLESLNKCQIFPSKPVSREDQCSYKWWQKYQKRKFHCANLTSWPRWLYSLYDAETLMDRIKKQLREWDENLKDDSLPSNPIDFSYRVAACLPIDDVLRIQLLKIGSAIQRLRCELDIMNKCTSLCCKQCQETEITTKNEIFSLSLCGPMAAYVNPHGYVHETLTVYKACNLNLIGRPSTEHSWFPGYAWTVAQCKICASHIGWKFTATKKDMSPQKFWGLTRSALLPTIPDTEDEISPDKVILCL
Nature of the assay: CRBN binding, HTRF (CEREBLON BINDING kit). Particulars: Table II-2, CRBN binding screening, HTRF; for inhibition at 0.5 µM: read-out: Inhibition rate (%) at 0.5µM; for inhibition at 2 µM: read-out: Inhibition rate (%) at 2 µM. The method, boiled down: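 After 3 h at room temperature, emission at 665 and 620 nm was measured in a homogeneous time-resolved fluorescence format. Compounds competed with a Thalidomide-Re probe for GST-tagged wild-type human CRBN, which was labelled with a Eu anti-GST antibody.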
(TR-FRET usually uses a lanthanide donor and a delayed reading to cut background.)

For another assay, the target named is T3, RSK2 (Homo sapiens, UniProt P51812).
T3 construct: evaluate the effects of the compounds of the present disclosure on the expression of target proteins in cells; endogenous in cells; host or cells: hPBMC
T3 sequence (P51812 whole entry): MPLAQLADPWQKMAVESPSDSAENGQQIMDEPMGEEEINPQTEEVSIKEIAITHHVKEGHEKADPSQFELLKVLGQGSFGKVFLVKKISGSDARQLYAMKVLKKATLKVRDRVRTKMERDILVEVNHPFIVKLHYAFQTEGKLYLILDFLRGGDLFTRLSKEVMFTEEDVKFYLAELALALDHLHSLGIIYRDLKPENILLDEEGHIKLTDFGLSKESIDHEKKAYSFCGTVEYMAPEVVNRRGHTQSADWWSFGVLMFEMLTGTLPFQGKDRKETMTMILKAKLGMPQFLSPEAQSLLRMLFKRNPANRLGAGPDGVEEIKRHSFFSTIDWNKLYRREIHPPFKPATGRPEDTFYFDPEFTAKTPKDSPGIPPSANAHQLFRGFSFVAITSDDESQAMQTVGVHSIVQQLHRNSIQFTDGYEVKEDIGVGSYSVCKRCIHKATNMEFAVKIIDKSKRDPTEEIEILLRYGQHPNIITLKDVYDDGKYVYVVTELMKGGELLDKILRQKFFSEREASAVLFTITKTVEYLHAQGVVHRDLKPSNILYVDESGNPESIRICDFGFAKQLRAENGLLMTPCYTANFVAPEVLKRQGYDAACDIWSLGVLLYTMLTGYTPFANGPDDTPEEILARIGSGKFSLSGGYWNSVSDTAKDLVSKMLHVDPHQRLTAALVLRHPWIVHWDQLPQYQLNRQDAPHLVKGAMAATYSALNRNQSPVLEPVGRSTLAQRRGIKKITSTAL
Nature of the assay: Western blot degradation of RSK2 (hPBMC). It counts as cell-based. As to conditions: Table D8. The gist of the method:
as §1

T1 sequence (Q15418 whole entry): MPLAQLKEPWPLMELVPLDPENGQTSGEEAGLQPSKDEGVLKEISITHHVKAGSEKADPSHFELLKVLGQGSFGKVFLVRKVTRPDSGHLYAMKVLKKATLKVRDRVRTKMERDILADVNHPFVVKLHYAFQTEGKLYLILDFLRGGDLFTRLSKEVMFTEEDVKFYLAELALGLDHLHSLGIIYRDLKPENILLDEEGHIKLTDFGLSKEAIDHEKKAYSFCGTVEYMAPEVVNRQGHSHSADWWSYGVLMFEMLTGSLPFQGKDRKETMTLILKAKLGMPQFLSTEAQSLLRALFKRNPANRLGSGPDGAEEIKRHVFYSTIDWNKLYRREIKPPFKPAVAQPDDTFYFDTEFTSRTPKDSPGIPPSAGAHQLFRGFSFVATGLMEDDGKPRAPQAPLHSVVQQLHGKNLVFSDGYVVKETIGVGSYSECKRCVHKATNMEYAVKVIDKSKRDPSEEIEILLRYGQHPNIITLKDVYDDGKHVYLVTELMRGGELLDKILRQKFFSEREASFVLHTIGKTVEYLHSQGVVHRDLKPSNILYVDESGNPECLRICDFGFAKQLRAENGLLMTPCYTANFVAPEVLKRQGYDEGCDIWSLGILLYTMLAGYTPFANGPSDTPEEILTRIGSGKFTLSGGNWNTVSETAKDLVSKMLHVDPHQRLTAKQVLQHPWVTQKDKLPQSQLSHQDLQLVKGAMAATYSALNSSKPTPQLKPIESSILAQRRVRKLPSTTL

As for `C[C@@H]1CNC(=O)c2cc3ccc(C(=O)Nc4cnn(Cc5ccc(N6CCN(Cc7ccc(C8CCC(=O)NC8=O)cc7)CC6)cc5)c4)nc3n21` (stereo partly drawn) [GT-07926, (9R)-N-(1-(4-(4-(4-(2,6-dioxopiperidin-3-yl)benzyl)piperazin-1-yl)benzyl)-1H-pyrazol-4-yl)-9-methyl-6-oxo-6,7,8,9-tetrahydropyrido[3',2':4,5]pyrrolo[1,2-a]pyrazine-2-carboxamide], the “Degradation of substrate protein RSK1 (substrate protein remaining %)” value on RSK1 is reported as “A (A is defined as 0% ≤ substrate protein remaining % ≤ 80%)”. Moreover, in assay [1], the inhibition (as a rule, the share of the control response that was lost under treatment) at 0.5 µM was in the range of 60 to 80% and the inhibition at 2 µM lay within 80 to 100%. Also, on RSK2, the “Degradation of substrate protein RSK2 (substrate protein remaining %)” value was “B (B is defined as substrate protein remaining % > 80%)”.

For `C[C@@H]1CNC(=O)c2cc3ccc(C(=O)Nc4cnn(Cc5ccc(N6CCC(N(C)Cc7cc(C8CCC(=O)NC8=O)cnc7F)CC6)cc5)c4)nc3n21` (stereo partly drawn) [GT-07946, (9R)-N-(1-(4-(4-(((5-(2,6-dioxopiperidin-3-yl)-2-fluoropyridin-3-yl)methyl)(methyl)amino)piperidin-1-yl)benzyl)-1H-pyrazol-4-yl)-9-methyl-6-oxo-6,7,8,9-tetrahydropyrido[3',2':4,5]py rrolo[1,2-a]pyrazine-2-carboxamide], the “Degradation of substrate protein RSK1 (substrate protein remaining %)” value on RSK1 is reported as “A (A is defined as 0% ≤ substrate protein remaining % ≤ 80%)”. For the same compound, in assay [1], the inhibition at 0.5 µM was 30 to 40% and the inhibition at 2 µM was in the range of 60 to 80%. The “Degradation of substrate protein RSK2 (substrate protein remaining %)” value on RSK2 is on record as “A (A is defined as 0% ≤ substrate protein remaining % ≤ 80%)”.

For `C[C@@H]1CNC(=O)c2cc3ccc(C(=O)Nc4cnn(Cc5ccc(N6CCC(N7CCN(Cc8cccc(N9CCC(=O)NC9=O)c8)CC7)CC6)cc5)c4)nc3n21` [GT-07953, (R)-N-(1-(4-(4-(4-(3-(2,4-dioxotetrahydropyrimidin-1(2H)-yl)benzyl)piperazin-1-yl)piperidin-1-yl)benzyl)-1H-pyrazol-4-yl)-9-methyl-6-oxo-6,7,8,9-tetrahydropyrido[3',2':4,5]pyrrolo[1,2-a]pyrazine-2-carboxamide], the “Degradation of substrate protein RSK1 (substrate protein remaining %)” value at RSK1 is “A (A is defined as 0% ≤ substrate protein remaining % ≤ 80%)”. Further, in assay [1], the inhibition at 0.5 µM was in the range of 20 to 30% and the inhibition at 2 µM was in the range of 53 to 60%. For the same compound, at RSK2, the “Degradation of substrate protein RSK2 (substrate protein remaining %)” value is reported as “A (A is defined as 0% ≤ substrate protein remaining % ≤ 80%)”.

For the compound `C[C@@H]1CNC(=O)c2cc3ccc(C(=O)Nc4cnn(Cc5ccc(N6CCC(N7CCN(Cc8ccc(N9CCC(=O)NC9=O)cn8)CC7)CC6)cc5)c4)nc3n21` [GT-07954, (R)-N-(1-(4-(4-(4-((5-(2,4-dioxotetrahydropyrimidin-1(2H)-yl)pyridin-2-yl)methyl)piperazin-1-yl)piperidin-1-yl)benzyl)-1H-pyrazol-4-yl)-9-methyl-6-oxo-6,7,8,9-tetrahydropyrido[3',2':4,5]pyrrolo[1,2-a]pyrazine-2-carboxamide], the “Degradation of substrate protein RSK1 (substrate protein remaining %)” value on RSK1 is recorded as “A (A is defined as 0% ≤ substrate protein remaining % ≤ 80%)”. Also, in assay [1], the inhibition at 0.5 µM lay within 60 to 80% and the inhibition at 2 µM lay in the range of 80 to 100%. The “Degradation of substrate protein RSK2 (substrate protein remaining %)” value on RSK2 is “A (A is defined as 0% ≤ substrate protein remaining % ≤ 80%)”.

In the case of `C[C@@H]1CNC(=O)c2cc3ccc(C(=O)Nc4cnn(Cc5ccc(N6CCC(N7CCN(Cc8cc(C9CCC(=O)NC9=O)cnc8F)CC7)CC6)cc5)c4)nc3n21` (stereo partly drawn) [GT-07960, (9R)-N-(1-(4-(4-(4-((5-(2,6-dioxopiperidin-3-yl)-2-fluoropyridin-3-yl)methyl)piperazin-1-yl)piperidin-1-yl)benzyl)-1H-pyrazol-4-yl)-9-methyl-6-oxo-6,7,8,9-tetrahydropyrido[3',2':4,5]pyrrolo[1,2-a]pyrazine-2-carboxamide], the “Degradation of substrate protein RSK1 (substrate protein remaining %)” value on RSK1 is “A (A is defined as 0% ≤ substrate protein remaining % ≤ 80%)”. For the same compound, in assay [1], the inhibition at 0.5 µM was in the range of 30 to 40% and the inhibition at 2 µM was in the range of 53 to 60%. In addition, the “Degradation of substrate protein RSK2 (substrate protein remaining %)” value on RSK2 is recorded as “B (B is defined as substrate protein remaining % > 80%)”.
